From patent publication US20200399392A1, “INHIBITORS OF PLA2-G1B COFACTORS FOR TREATING CANCER” (priority 2018, published 2020)

Columns and labels:
PLA2-GIB = PLA2-GIB enzymatic assay on [3H] arachidonic acid labelled Jurkat E6.1 T cells; format: cell-based, human
Experimental: Jurkat E6.1 T cells (ECACC 88042803) or gC1qR KO Jurkat E6.1 T cells were incubated for 17 h at 5×10^5 cells/ml with 1 μCi/ml of arachidonic acid [5,6,8,9,11,14,15-^3H(N)] (Perkin Elmer, NET298Z250UC) in RPMI 1640 medium (Lonza) supplemented with 10% FBS, 50 mM HEPES pH 7.4, glutamine, penicillin, streptomycin and fungizone at 2 ml/well in 6-well plates at 37° C. in a 5% CO2 humidified atmosphere. Cells were washed twice with RPMI with 10% FBS by centrifugation at 300×g for 10 minutes at room temperature and then frozen in 90% FBS 10% DMSO at 10^7 cells/ml/vial at −80° C. Percent of [3H] arachidonic acid in CD4 T cells is the (1 minus ratio of [3H] arachidonic acid in the supernatant of CD4 T cells without cells (cpm/ml) on total [3H] arachidonic acid in supernatant and cells (cpm/ml).
To test PLA2-GIB activity on [3H] arachidonic acid labelled Jurkat E6.1 T lymphocytes, cells were unfrozen in 10% FBS RPMI preheated at 37° C. by centrifugation at 300×g for 10 minutes at room temperature, washed twice in 2.5% FBS RPMI, and equilibrated at 5×10^4 or 10^5 Jurkat E6.1 T cells/400 μl/well in 24-well polystyrene plates for 1 h30 at 37° C. in a 5% CO2 humidified atmosphere. Then HCV core solution or vehicle dilution in 2.5% FBS RPMI at 5.95 μM was mixed with an equal volume of a PLA2GIB solution at 630 nM or 2 μM 2.5% FBS RPMI and 100 μl were added per well at the same time for 2 h. For peptide treatments, cells were pretreated for 2 h, 4 h or 21 h, as indicated on figures, with 50 μl per well of peptide solutions at 110 μM or 55 μM in 2.5% FBS RPMI. Then 50 μl per well of PLA2-GIB at 630 nM or 2 μM 2.5% FBS RPMI or medium alone were added for 2 h. Cells and supernatant were collected in eppendorf tubes and centrifuged at 580×g for 10 minutes at room temperature. The [3H] arachidonic acid released in cell supernatant was quantified in 300 μl with 16 ml of Ultima gold (Perkin Elmer, 6013329) in low diffusion vials (Perkin Elmer, 6000477) on a counter (tri-Carb 2800 TR liquid scintillation analyzer, Perkin Elmer).

[1] = system: gC1qR KO Jurkat E6.1 T cells; assay: PLA2-GIB enzymatic assay on [3H] arachidonic acid labelled gC1qR KO Jurkat E6.1 T cells; format: cell-based, human; conditions: gC1qR KO cells (1D5 or 2G9), pretreatment 21 h, FIG. 13
Description: Generation of gC1qR KO Jurkat E6.1 T cells—The global strategy for the development of Jurkat cells deprived of C1QBP is based on the design of a targeting vector permitting bi-allelic inactivation of C1QBP gene via homologous recombination. Human C1QBP homologous regions isogenic with the Jurkat E6.1 T cell line (ECACC 88042803) has been used. The targeting vector has been synthetized by Genewiz and cloned into the pUC57-Amp vector. […] The NeoR cassette was cloned using BamHI/NotI restriction sites. The targeting vector has been verified by DNA restriction digestion cut with selected restriction enzymes (APaL1, Drd1, Pvu1, Pvu2, BamH1/NotI, Not1/NcoI, NEB) and target region sequencing. The DNA primers corresponding to C1QBP sgRNA (1828-Crispr_1A: CACC-[…] and 1828-Crispr_1B: AAAC-[…]) were hybridized and cloned (Quick Ligase-New England Biolabs, NEB) into the pX330 plasmid (Addgene, 42230; Feng Zhang, MIT) using BbsI restriction site (NEB).
The Jurkat cells (5×10^6) were resuspended in 100 μL of Opti-MEM and 7 μg of CRISPR/Cas9 plasmid and 2.5 μg of targeting vector were added. The cells were electroporated with a Nepa21 electroporator. After cell selection in G418 selective medium, the Jurkat cell clones were prescreened by PCR genotyping. Independent cell clones knocked-out for C1QBP gene were amplified and verified by PCR genotyping and target region sequencing. […]

NH2-PWNASWSNKSLDDIW—COOH (H-PWNASWSNKSLDDIW-OH) [PEP3]
PLA2-GIB activity vs scrambled PEP3 (PLA2-GIB; Jurkat E6.1 WT cells, pretreatment 21 h, FIG. 13): increased significantly | PLA2-GIB activity on the membrane of Jurkat E6.1 T cells vs scrambled PEP3 (PLA2-GIB; pretreatment 4 h or more with peptide 11 μM, 200 nM PLA2-GIB, FIG. 11): significantly increased | PLA2-GIB activity vs scrambled PEP3 [1]: not
